The subject of data set [1] is CD-1 mice. Description: Acetic-acid-induced writhings (acid-induced muscle pain model). In kind it is in vivo, mouse. As to conditions: 1 mg/kg i.v. The method, then: (§1) The animal studies were performed under the European Commission’s legislation (Directives 86/609/EEC, 2010/63/EU), the National Standard of the Russian Federation “Good Laboratory Practice” (GOST P 53434-2009, Moscow, Russia), and Committee on Ethics of Laboratory Animal Handling № 05/21, 20 September 2021 and 08/21, 30 December 2021 protocols (PIBOC FEB RAS). Adult female CD-1 mice weighing 25 ± 2 g were subjected to a 12 h light–dark cycle at room temperature and with ad libitum access to food and water. There were seven or eight individuals in each group.
Three groups of animals were treated with peptides at doses of 0.01, 0.1 and 1 mg/kg (intravenously) 15 min before an injection of 300 μL of a 0.7% acetic acid solution. The control animal group received an identical volume of saline. The positive control group received intravenously a dose 1 mg/kg of diclofenac (Hemofarm A.D., Vršac, Serbia), a commercial drug of the NSAID group. Fifteen minutes immediately after acid administration, the number of writhings and the writhing time (time in a spasmodic state) were counted.
In general terms: In writhing tests, fewer writhes than in controls are read as antinociception.

For data set [2], the system named is CD-1 mice. Description: Hot plate test. Format: in vivo, mouse. The settings on record: 52 °C. The protocol: as §1
Thermal analgesia was tested with a Hot Plate Analgesia Meter (IITC Life Science Inc., Woodland Hills, CA, USA). Measurements were carried out 15 min after the intravenous injection of peptides at doses of 0.1 and 1 mg/kg. The control animals received 300 µL of sterile saline. Metamizole (Pharmstandard, Russia) was used as a positive control administrated intraperitoneally at a dose of 500 mg/kg 30 min before testing. Animals were placed individually on the preheated surface of a plate (up to 52 °C), and nociceptive reactions, withdrawal, or licking of the front and hind legs were recorded.
In general terms: Thermal pain tests record how soon the animal reacts.

In data set [3] the test system is CD-1 mice. Description: Carrageenan-induced paw edema. Format: in vivo, mouse. As to conditions: 1 mg/kg. The protocol:
as §1
Three groups of animals were treated with peptides at doses of 0.01, 0.1 and 1 mg/kg (intravenously) 30 min before the induction of inflammation. The control animal group received an identical volume of saline. The positive control group received diclofenac (Hemofarm A.D., Vršac, Serbia) at a dose of 1 mg/kg. The edema was induced by a 20 µL injection of 1.5% solution of λ-carrageenan (Sigma Aldrich, St. Louis, MO, USA) in the hind paw pad. The resulting edema was measured after 1, 2, 4 and 24 h using a plethysmometer (Ugo Basile, Gemonio (VA), Italy). The anti-inflammatory threshold was estimated as a decrease in the paw volume and volume growth index (%), calculated using the formula: Volume Growth Index (%) = [(VC − Vi)/Vi] × 100, (1), where VC is the volume of the paw after the introduction of carrageenan and Vi is the volume of the paw before the introduction of carrageenan.

In data set [4] the test system is ASIC3. The settings on record: cited from earlier work. From the text:
Some non-selective, low-molecular ligands of ASIC channels, acting at micromolar concentrations, are enabled for clinical medicine and veterinary procedure: local anesthetics (lidocaine and tetracaine), nonsteroidal anti-inflammatory drugs (NSAIDs) (ibuprofen, aspirin, and diclofenac), potassium-sparing diuretic amiloride and the antibacterial/antiparasitic drug, diminazene. […] Preclinical and clinical stu ... || Venom-derived toxins affecting ASICs may cause pain or, on the contrary, have analgesic, anti-inflammatory or neuroprotective effects. The first identified peptide agonist of ASIC channels, from the venom of the coral snake Micrurus tener tener, is a complex of MitTxα (Kunitz fold) and MitTxβ (phospholipase A2-like protein) subunits.

For data set [5], the system named is ASICs. The settings on record: ref [45]; cited from earlier work.
The conditions of data set [6]: eight hours after a stroke; ref [18],[19]; cited from earlier work.
The conditions of data set [7]: cited from earlier work. The text has this:
(§2) Venom-derived toxins affecting ASICs may cause pain or, on the contrary, have analgesic, anti-inflammatory or neuroprotective effects. The first identified peptide agonist of ASIC channels, from the venom of the coral snake Micrurus tener tener, is a complex of MitTxα (Kunitz fold) and MitTxβ (phospholipase A2-like protein) subunits.

The test system of data set [8] is ASIC1a. As to conditions: ref [20]; cited from earlier work.
Description: as §2

The test system of data set [9] is rats. The settings on record: ref [53]; cited from earlier work. From the text: (§3) Contradictory results concerning the involvement of ASIC1a channels in the antidepressant activity and the in vivo effects of ASIC1a inhibitors, namely tarantula toxin, PcTx1, have been published earlier. Thus, in a number of experiments, it was shown that ASI ...
Data set [10] deals with ASIC1b. As to conditions: ref [36]; cited from earlier work.
Data set [11] relates to ASIC2a. The settings on record: ref [36]; cited from earlier work.
For data set [12], the system named is hERG channels. Details: method as in PMID 29134638. As to conditions: ref [36]; cited from earlier work.
Data set [13] relates to NaV1.8. Details: method as in PMID 29134638. As to conditions: ref [36]; cited from earlier work.
For data set [14] the following is noted: 1 mg/kg intramuscularly; ref [34]; cited from earlier work.
Description: as §3

For data set [15] the following is noted: ref [34]; cited from earlier work.
Data set [16] relates to ASIC1a, ASIC1b, ASIC2a and ASIC3 channels. The settings on record: ref [7],[13]; read-out: IC50, inhibition of ASIC1a, ASIC1b, ASIC2a and ASIC3 channels; cited from earlier work. From the text:
Some non-selective, low-molecular ligands of ASIC channels, acting at micromolar concentrations, are enabled for clinical medicine and veterinary procedure: local anesthetics (lidocaine and tetracaine), nonsteroidal anti-inflammatory drugs (NSAIDs) (ibuprofen, aspirin, and diclofenac), potassium-sparing diuretic amiloride and the antibacterial/antiparasitic drug, diminazene. […] Preclinical and clinical stu ...

The source of these data is article PMC10221320.

Read-outs that look alike come from different tables or passages of the source.

As for `O=C(O)Cc1ccccc1Nc1c(Cl)cccc1Cl` [Diclofenac], the “effect on writhings, positive control” value in data set [1] was “reduced the number of writhings”. Also, in [2] (peptides 0.1 and 1 mg/kg i.v.), the “analgesic effect in hot plate test” value is “did not affect the pain sensitivity in this test”. The “anti-inflammatory effect, positive control” value in data set [3] was “reduced inflammation more rapidly (1–24 h range)”. In data set [4] (ref [45], read-out: IC50, sustained current component of ASIC3), the IC50 is 92 ± 19 µM. Also, in [5], the “inflammation-induced expression of ASICs” value is on record as “decreases the inflammation-induced expression of ASICs”.

With “PcTx1: ICK-peptide from the tarantula Psalmopoeus cambridgei”, the neuroprotection after stroke result in [6] is listed as “ineffective”. For the same compound, the antinociceptive effect result in data set [7] (ref [23]) is “strong antinociceptive effect in the acute and neuropathic pain models”. Further, in [8], the IC50 was 0.0003 to 0.0037 µM. Further, in data set [9], the anxiety levels result is given as “increases anxiety levels in rats”.

With APETx2, the IC50 in data set [4] (ref [20], read-out: IC50, ASIC3) was 0.037 to 0.063 µM. Besides, the “effect on ASIC1b” value in data set [10] is “potentiation”. In addition, in [11], the “effect on ASIC2a” value is recorded as “potentiation”. Further, the effect on edema entry in data set [7] (ref [34]) is listed as “partially reduces edema”. Moreover, the hERG inhibition result in data set [12] is listed as “ability to inhibit hERG channels”. For the same compound, the NaV1.8 inhibition entry in data set [13] is given as “inhibition”. The “locomotion and CNS-mediated behavior” value in [14] is “did not impair locomotion and the CNS-mediated behavior in the open field test”. For the same compound, the antihyperalgesia result in data set [15] is recorded as “induces antihyperalgesia in an acid-induced muscle pain model”.

For the compound `Cc1c(N(C)CS(=O)(=O)O)c(=O)n(-c2ccccc2)n1C` [Metamizole sodium], in data set [2] (500 mg/kg i.p. 30 min before testing), the “increase in latent time of licking both front and hind paws” value is “more than 1.5 times”.

In the case of `N=C(N)NC(=O)c1nc(Cl)c(N)nc1N` [amiloride], in data set [16], the IC50 was 5 to 100 µM.

The IC50 is the midpoint of a concentration-inhibition curve.
